Structures are written as SMILES.

For the test, the system named is glaucoma patients. In words: IOP, pulsatile blood flow, visual performance, relative scotomas and stability of differential light sensitivity in glaucoma patients under long-term topical treatment. The format is in vivo, human. From the text: Elevated IOP is a risk factor associated with the development of glaucoma but it is not the disease itself. The recent recognition that a large percentage of glaucoma patients never experience elevated IOP has increased the possibility that the ocular hypotensive drug has the undesirable action of decreasing ocular blood flow. This possibility has been supported by numerous studies and confirmed in the prolonged longitudinal studies on individual glaucoma patents (Table 1). With increased ocular blood flow, the vision improved whilst with a drug having equal ocular hypotensive action, but causing decreased ocular blood flow run vision worsened. […] The Intraocular pressure and pulse form. The […] pneumatic digitized tonometer was used to make continuous recordings of the intraocular pressure and its pulsatile character. This recording system provides the steady state IOP and the form of the IOP pulse with an accuracy equal to a manometric recording. The pulsatile ocular blood flow is evaluated from the amplitude of the individual pulses using the known pressure/volume relation of living human eyes. […]'Brien V., Silver, D. M., Non-Invasive Measurement of Pulsatile Ocular Blood Flow in the Human […] and […], Amsterdam (1989).

Setting [1] is: difference clonidine treatment minus timolol treatment, five glaucoma patients.
[2] abbreviates: five glaucoma patients, topical 0.25% clonidine b.i.d., years 6, 7 and 8 (after timolol).
The mark [3] stands for this setting: difference timolol treatment minus prior, five glaucoma patients.
Setting [4] is: five glaucoma patients, topical timolol 0.25-0.50% b.i.d., years 3, 4 and 5.

On to `Clc1cccc(Cl)c1N=C1NCCN1` [Clonidine, clonidine], for which, under setting [1], the “IOP, Clon-Timolol” value is −0.8 ± 0.5 mmHg; the “PBF, Clon-Timolol” value was found to be 192 ± 71 µL/min; the “Vis. P. (visual performance), Clon-Timolol” value is recorded as 31 ± 9. Moreover, under setting [2], the IOP is reported as 20.0 ± 1.0 mmHg, the PBF amounted to 557 ± 30 µL/min, the “Rel. Scot (relative scotomas)” value is reported as 3 and the “Vis. P. (visual performance)” value came to 564 ± 30. For the same compound, the “Stability of the differential light sensitivity, Clon-Timolol” value (number of the five glaucoma patients, clonidine treatment versus timolol treatment) was 5 improved. For the setting “number of the five glaucoma patients, topical 0.25% clonidine b.i.d., years 6, 7 and 8”, the “Stability of the differential light sensitivity” value amounted to 5 improved.

Take `CC(C)(C)NC[C@H](O)COc1nsnc1N1CCOCC1` [Timolol, timolol]: under setting [3], the “IOP, Tim-Prior” value is given as −3.1 ± 0.6 mmHg; the “PBF, Tim-Prior” value was -177 ± 33 µL/min; the “Vis. P. (visual performance), Tim-Prior” value is reported as −116 ± 2. In addition, under setting [4], the IOP was determined as 20.8 ± 0.6 mmHg, the PBF stood at 365 ± 20 µL/min, the “Rel. Scot (relative scotomas)” value amounted to 3 and the “Vis. P. (visual performance)” value is given as 533 ± 20. In addition, the “Stability of the differential light sensitivity, Tim-Prior” value (number of the five glaucoma patients, timolol treatment versus prior) stood at 5 decreased. For the same compound, the “Stability of the differential light sensitivity” value (number of the five glaucoma patients, topical timolol 0.25-0.50% b.i.d., years 3, 4 and 5) worked out at 5 decreased.

These data come from patent US20120101167A1, “Treatment of ocular and cerebral ischemia” (priority 2010, published 2012).
